In patent US20160101148A1, “TREATMENT AND PREVENTION OF BACTERIAL SKIN INFECTIONS USING ORITAVANCIN” (priority 2013, published 2016):

Columns and labels:
[1] = SOLO I Phase 3 trial, safety assessments (safety population); assay type: in vivo, human
Excerpt: The study design was consistent with current guidelines from FDA (U.S. Food and Drug Administration. Guidance for Industry Acute Bacterial Skin and Skin Structure Infections: Developing Drugs for Treatment (DRAFT GUIDANCE). Available via Internet at the URL containing: fda.gov/downloads/Drugs/GuidanceComplianceRegulatoryInformation/Guidances/ucm071185.p df) and EMA (European Medicines Agency Committee for Medicinal Products for Human Use. Addendum to the note for guidance on evaluation of medicinal products indicated for treatment of bacterial infections (CHMP/EWP/558/95 REV 2) to address indication-specific clinical data (draft). 2012. Available via Internet at the URL containing: ema.europa.eu/docs/en_GB/document_library/Scientific_guideline/2012/07/WC500129443.pdf) and Foundation for National Institutes of Health guidance was considered for analyses (Talbot G H etl. Clin Infect Dis. 2012. 55(8):1114-1121). The protocol was approved by institutional review boards/ethics committees and all patients provided written informed consent. The study was conducted from January 2011 through October 2012 at 46 study centers in Mexico, Spain, Germany, Romania, Russia, Ukraine, Israel, India, and the United States. […] Aztreonam and metronidazole were permitted for gram-negative and anaerobic cover, respectively.
Safety assessments (Safety Population) included vital signs, electrocardiogram (ECG), clinical chemistry and hematology parameters, reporting of adverse events (AEs) and serious adverse events (SAEs). Treatment-emergent adverse events (TEAEs) were defined as AEs with onset or worsening severity at or after the first dose of study drug through the Safety Follow-up Visit (Day 60+7 days).
For safety assessments, descriptive analyses were performed in the safety population for all safety parameters by treatment group.
The intent-to-treat (ITT) population included all patients randomized into the study. The modified intent-to-treat (mITT) was the primary population for all the efficacy analyses and included all randomized patients who received any study drug. The clinically evaluable (CE) population consisted of all mITT patients who met the inclusion/exclusion criteria, received the full-course of randomized study treatment (for a minimum of 7 days), and had investigator assessment for clinical cure at PTE. The CE population was used to confirm the efficacy analyses. The microbiologically ITT (MicroITT) population consisted of all mITT patients with baseline gram-positive pathogen(s) known to cause ABSSSI and it was used for the secondary efficacy analyses. The microbiologically evaluable (MicroE) population was used to confirm the secondary efficacy analyses and consisted of all patients who were in both the MicroITT and CE populations. The safety population was the primary population for all the safety analyses, and consisted of all patients who were dosed with study drug, irrespective of randomization. Treatment classification was based on the actual treatment received.

[2] = test system: ABSSSI caused by susceptible gram-positive bacteria, including MRSA; experiment: SOLO II Phase 3 trial, efficacy; assay type: in vivo, human; conditions: for FDA primary endpoint: Cessation of spread, absence of fever, no rescue antibiotics / ≧20% reduction of lesion area / FDA primary endpoint: Cessation of spread, absence of fever, no rescue antibiotics, number of patients / ≧20% reduction of lesion area, number of patients: ECE; for EMA primary endpoint: Investigator-assessed clinical cure / EMA primary endpoint: Investigator-assessed clinical cure, number of patients: PTE
Excerpt: (§1) Complete results were obtained from a phase 3 clinical trial program of oritavancin (SOLO), which investigated the drug for the treatment of acute bacterial skin and skin structure infections (ABSSSI) caused by susceptible gram-positive bacteria, including methicillin-resistant Staphylococcus aureus (MRSA). SOLO I and SOLO II clinical trials were identical multicenter, double-blind, randomized clinical trials.
In SOLO II, all protocol-specified primary and secondary efficacy endpoints were met. […] The efficacy was similar in the overall population and in those patients with microbiologically confirmed MRSA infections.

[3] = test system: ABSSSI caused by susceptible gram-positive bacteria, including MRSA; experiment: SOLO I and SOLO II combined, efficacy; assay type: in vivo, human; conditions: SOLO I and SOLO II combined; for FDA primary endpoint: Cessation of spread, absence of fever, no rescue antibiotics / ≧20% reduction of lesion area / FDA primary endpoint: Cessation of spread, absence of fever, no rescue antibiotics, number of patients / ≧20% reduction of lesion area, number of patients: ECE; for EMA primary endpoint: Investigator-assessed clinical cure / EMA primary endpoint: Investigator-assessed clinical cure, number of patients: PTE
Excerpt: as §1
In microbiologically confirmed MRSA patients, efficacy was similar in both treatment groups; however, a higher proportion of MRSA-infected patients in the oritavancin group achieved the endpoint of greater than or equal to 20% reduction of lesion area at ECE (p value=0.032). Under the Special Protocol Assessment (SPA) agreed with the FDA, the protocols pre-specified that MRSA patients from the SOLO studies would be pooled for the evaluation of efficacy.
The combined SOLO studies represented 1,987 patients in an intent-to-treat population for evaluation of oritavancin in the treatment of ABSSSI in controlled clinical trials and assessed one of the largest subsets of patients with documented MRSA infection (405 patients).

[4] = SOLO I and SOLO II combined, safety; assay type: in vivo, human
[5] = Predicted free peak and free trough levels in plasma; assay type: in vivo; conditions: non-protein bound drug, representative human dose: oritavancin 1200 mg, vancomycin 1000 mg, daptomycin 4 mg/kg, linezolid 500 mg
Method: ORI concentrations were chosen to approximate free peak (fCmax; defined as the peak concentration of non-protein bound drug) and free trough (fCmin; defined for ORI as the concentration of non-protein bound drug at 24 h) levels in plasma following administration of a 1200 mg dose (Belley et al., 2013 Table 10). ORI protein binding is estimated at approximately 85% in serum from nonclinical species and humans (Arhin et al., 2010). Doubling dilution concentrations of comparator agents were likewise chosen to approximate their fCmax and fCmin levels in plasma when administered at approved dosages for complicated skin and skin structure infections, using pharmacokinetic data and protein binding values from their respective package inserts (DAP [Cubicin®]; LZD [Zyvox®]; VAN [Vancocin®]; Table 3).

[6] = protein binding values from Arhin et al., 2010 (oritavancin) and package inserts (comparators); cited from earlier work
[7] = confirmed MRSA, Microbiological ITT
[8] = confirmed MRSA, Microbiological ITT, oritavancin n = 100, vancomycin n = 101
[9] = mITT, oritavancin n = 503, vancomycin n = 502
[10] = confirmed MRSA, MicroITT, oritavancin n = 204, vancomycin n = 201
[11] = mITT, oritavancin n = 978, vancomycin n = 981

SMILES: CN[C@H](CC(C)C)C(=O)N[C@H]1C(=O)N[C@@H](CC(N)=O)C(=O)N[C@H]2C(=O)N[C@H]3C(=O)N[C@H](C(=O)N[C@H](C(=O)O)c4cc(O)cc(O)c4-c4cc3ccc4O)[C@H](O)c3ccc(c(Cl)c3)Oc3cc2cc(c3O[C@@H]2O[C@H](CO)[C@@H](O)[C@H](O)[C@H]2O[C@H]2C[C@](C)(N)[C@H](O)[C@H](C)O2)Oc2ccc(cc2Cl)[C@H]1O [Vancomycin, vancomycin]
- Cellulitis SAEs considered new events [1]: 4
- Discontinuation of study drug due to cellulitis [1]: 3 patients
- Discontinuation of study drug due to drug hypersensitivity [1]: 2 patients
- Discontinuation of study drug due to hypersensitivity [1]: 5 patients
- Discontinuation of study drug due to pruritus [1]: 2 patients
- Discontinuation of study drug due to rash [1]: 2 patients
- Discontinuation of study drug due to sepsis [1]: 2 patients
- Discontinuation of study drug due to skin bacterial infection [1]: 2 patients
- Frequency of SAEs [1]: 7.3%
- Histamine-like reactions (Red Man syndrome) [1]: 2 patients
- Proportion of patients experiencing a TEAE that led to discontinuation of the study drug [1]: 5.8%
- Skin and subcutaneous tissue adverse events [1]: 19.1%
- Patients who died during the study ([1]; all determined unrelated to study drug): two
- Infusion site reaction AEs ([1]; post-hoc analysis): 7.1%
- Pruritus AEs ([1]; post-hoc analysis): 9.1%
- Incidence of diarrhea ([1]; safety population): 3.5%
- Incidence of headache ([1]; safety population): 7.9%
- Incidence of nausea ([1]; safety population): 8.9%
- Incidence of vomiting ([1]; safety population): 3.7%
- FDA primary endpoint: Cessation of spread, absence of fever, no rescue antibiotics [2, 7]: 81.2%
- ≧20% reduction of lesion area [2, 7]: 90.1%
- FDA primary endpoint: Cessation of spread, absence of fever, no rescue antibiotics, number of patients [2, 8]: 82
- ≧20% reduction of lesion area, number of patients [2, 8]: 91
- EMA primary endpoint: Investigator-assessed clinical cure [2, 7]: 85.1%
- EMA primary endpoint: Investigator-assessed clinical cure, number of patients [2, 8]: 86
- FDA primary endpoint: Cessation of spread, absence of fever, no rescue antibiotics ([2]; mITT): 82.9%
- ≧20% reduction of lesion area ([2]; mITT): 85.3%
- FDA primary endpoint: Cessation of spread, absence of fever, no rescue antibiotics, number of patients [2, 9]: 416
- ≧20% reduction of lesion area, number of patients [2, 9]: 428
- EMA primary endpoint: Investigator-assessed clinical cure ([2]; mITT): 80.5%
- EMA primary endpoint: Investigator-assessed clinical cure, number of patients [2, 9]: 404
- FDA primary endpoint: Cessation of spread, absence of fever, no rescue antibiotics ([3]; confirmed MRSA, MicroITT): 80.6%
- ≧20% reduction of lesion area ([3]; confirmed MRSA, MicroITT): 87.1%
- FDA primary endpoint: Cessation of spread, absence of fever, no rescue antibiotics, number of patients [3, 10]: 162
- ≧20% reduction of lesion area, number of patients [3, 10]: 175
- EMA primary endpoint: Investigator-assessed clinical cure ([3]; confirmed MRSA, MicroITT): 84.1%
- EMA primary endpoint: Investigator-assessed clinical cure, number of patients [3, 10]: 169
- FDA primary endpoint: Cessation of spread, absence of fever, no rescue antibiotics ([3]; mITT): 80.9%
- ≧20% reduction of lesion area ([3]; mITT): 84.1%
- FDA primary endpoint: Cessation of spread, absence of fever, no rescue antibiotics, number of patients [3, 11]: 794
- ≧20% reduction of lesion area, number of patients [3, 11]: 825
- EMA primary endpoint: Investigator-assessed clinical cure ([3]; mITT): 80.2%
- EMA primary endpoint: Investigator-assessed clinical cure, number of patients [3, 11]: 787
- Patients with adverse events leading to study drug discontinuation [4]: 4.2%
- Treatment emergent adverse events considered by investigators as related to study drug ([4]; p=0.002): 28.4%
- Patients reported to experience at least one adverse event ([4]; safety population): 56.9%
- Doubling Dilution Concentration Representing Predicted fCmax [5]: 16 mg/L
- Free Fraction [6]: 0.54
